One series has as its system MDA-MB-231 cells. The experiment in a line: Cytotoxicity test by MTT assay, MDA-MB-231. Format: cell-based. The note with it: Homo sapiens, MDA-MB-231, 48 h. (In general: Tetrazolium dyes change colour on reduction, which living cells bring about.)
The nature of series [1]: In vivo pharmacokinetic studies of PTX. More on the design: species or system Sprague Dawley rats.
The next series concerns MDA-MB-231 tumors. The experiment in a line: H&E staining and immunohistochemical analysis. Format: in vivo, nude mice. The note with it: tumor sections at 14 days, n=5.
A short description of series [2]: Body weight of mice during the antitumor assay. Format: in vivo. The note with it: tumor-bearing nude mice.
Series [3] in a line: Encapsulation efficiency and drug loading of micelles. The conditions noted are these: S-HM-3 concentration ranging from 0.1 to 0.7 mg/mL; data not shown. Format: physicochemical.
In a further series the test system is HUVECs. As to the kind of experiment: Transwell cell migration assay. Format: cell-based, Human. The conditions noted are these: 24 hours, Avstin 10 µg/mL, S-HM-3, TSm, HTSm 9 µg/mL, n=3.
Series [4] is described as follows: In vivo pharmacokinetic studies of S-HM-3. More on the design: species or system Sprague Dawley rats. The conditions noted are these: rat, background statement of the abstract.
Series [5] can be described thus: In vivo distribution studies of S-HM-3. More on the design: species or system nude mice. The conditions noted are these: MDA-MB-231 tumor-bearing mice, vein injection, free S-HM-3.
Where [6] appears, read: male, Sprague Dawley, rat, plasma, iv, 7 mg/kg.

Values after ≈ are worked out from the molar mass of the structure shown. Peptide text beside a SMILES is read from it. * marks the point of attachment. Stearoyl = CCCCCCCCCCCCCCCCCC(=O)*

One may read the IC50 as the concentration that gives 50% inhibition. A lower IC50 goes with greater potency. One may read the Vd as the apparent volume that relates the amount in the body to the concentration in plasma or blood. Higher therefore signals wide distribution into tissue. For orientation: half-life means the time needed for the level to fall by half in the phase considered. Read a high half-life as slow decline. Consider `CC(=O)O[C@H]1C(=O)[C@@]2(C)[C@H]([C@H](OC(=O)c3ccccc3)[C@]3(O)C[C@H](OC(=O)[C@H](O)[C@@H](NC(=O)c4ccccc4)c4ccccc4)C(C)=C1C3(C)C)[C@]1(OC(C)=O)CO[C@@H]1C[C@@H]2O` [PTX, Paclitaxel], for which, in the series with MDA-MB-231 cells, the IC50 turned out to be 1.37 µg/mL (≈ 1.6 µM). The “V1 of PTX” value in series [1] (SD rats, i.v. single dose, 7 mg/kg PTX) turned out to be 0.62 ± 0.08 L/kg. Moreover, in series [1] (SD rats, i.v. single dose, 7 mg/kg PTX, 7 mg/kg), the “CL of PTX” value was determined as 21.5 ± 2.83 mL/min/kg. For the same compound, in series [1] (setting [6]), the distribution volume (Vd) amounted to 3.34 ± 0.5 L/kg and the half-life was 1.79 ± 0.13 h. In the series with MDA-MB-231 tumors, the “antiangiogenesis effect (CD31, microvessel density)” value is given as “almost the same antiangiogenesis effect”. For the same compound, in series [2] (regimen of Table 1), the “toxicity judged from body weight” value is reported as “high toxicity” and the “weight loss of mice during the 0–10 days” value is recorded as “obvious”.

As to `CCCCCCCCCCCCCCCCCC(=O)N[C@H](C(=O)N[C@H](C(=O)N[C@@H](CCCNC(=N)N)C(=O)N[C@@H](CCCNC(=N)N)C(=O)N[C@@H](C)C(=O)N[C@@H](CC(=O)O)C(=O)N[C@@H](CCCNC(=N)N)C(=O)N[C@@H](C)C(=O)N[C@@H](C)C(=O)N[C@H](C(=O)N1CCC[C@H]1C(=O)NCC(=O)NCC(=O)NCC(=O)NCC(=O)N[C@@H](CCCNC(=N)N)C(=O)NCC(=O)N[C@@H](CC(=O)O)C(=O)O)C(C)C)C(C)C)[C@@H](C)CC` [S-HM-3] (Stearoyl-IVRRADRAAVPGGGGRGD-OH; N-terminus and C-terminus assumed), the “encapsulation efficiency of S-HM-3” value in series [3] is given as greater than 97%. Moreover, in the series on HUVECs, the “endothelial cell MI rate (migration inhibition rate)” value is recorded as 60.55%. Moreover, in series [4], the half-life came to 0.417 h. In series [5], the “time at which S-HM-3 in organs reached the peak” value came to 24 min and the “time at which S-HM-3 was nearly cleared from organs” value is 60 min. Besides, in the series on MDA-MB-231 tumors, the “antiangiogenesis effect (CD31, microvessel density)” value is reported as “almost the same antiangiogenesis effect” and the “apoptosis in tumor cells (positive p53 rate)” value was “did not induce significant apoptosis”. The “toxicity judged from body weight” value in series [2] (regimen of Table 1) is recorded as “very low toxicity or nontoxic”. Also, the “body weight of mice during the test period” value in series [2] (regimen of Table 1, 14 days) is listed as “significantly increased”.

Take “Avstin: positive control of the cell migration assay, 10 µg/mL”: the “endothelial cell MI rate (migration inhibition rate)” value in the series on HUVECs turned out to be 69.89%.

The record behind these values is paper PMC6369847 (International Journal of Nanomedicine, 2019).
